In US10266544B2, “Aryl substituted aminomethyl spectinomycin analogs as antibacterial agents” (ST. JUDE CHILDREN'S RESEARCH HOSPITAL, INC., priority 2013, dated 2019):
Values after ≈ are worked out from the molar mass of the structure shown. Where a name gives a salt, the structure may show the parent alone.

Key:
Format in all cases: cell-based
[1] = test system: Proteus mirabilis (ATCC 25933); assay: MIC determination, microbroth dilution; conditions: ATCC25933
[2] = test system: acinetobacter baumannii (ATCC 19606); assay: MIC determination, microbroth dilution; conditions: ATCC19606
[3] = test system: Staphylococcus aureus (ATCC 29213); assay: MIC determination, microbroth dilution; conditions: ATCC29213; Staphylococcus aureus (ATCC 29213); read-out: MIC S.a.
[4] = test system: Haemophilus influenza (ATCC 49247); assay: microbe, parasite or virus in culture; conditions: ATCC49247; Haemophilus influenza; 4 μg per disc; range of at least two experiments; read-out: Zone of inhibition H.i.
[5] = test system: Bacillus subtilis (ATCC 23857); assay: MIC determination, microbroth dilution; conditions: ATCC23857; Bacillus subtilis (ATCC 23857); read-out: MIC B.s.
[6] = test system: Klebsiella pneumoniae (ATCC 33495); assay: MIC determination, microbroth dilution; conditions: ATCC33495
E. coli K12 ΔtolC = assay: microbe, parasite or virus in culture; conditions: Escherichia coli, read-out: MIC E.c. Δtolc
[7] = test system: Proteus vulgaris (ATCC 33420); assay: MIC determination, microbroth dilution; conditions: ATCC33420
[8] = test system: Legionella pneumophila (ATCC 33153); assay: microbe, parasite or virus in culture; conditions: ATCC33153, 72 h, read-out: Zone of inhibition L.p.
[9] = test system: Neisseria meningitides (ATCC 13077); assay: Disc diffusion assay; conditions: ATCC13077, 4 μg per disc, read-out: Zone of inhibition N.m.
[10] = test system: Stenotrophomonas maltophilia (ATCC 13637); assay: MIC determination, microbroth dilution; conditions: ATCC13637; Stenotrophomonas maltophilia (ATCC 13637); read-out: MIC S.m.
[11] = test system: M. tuberculosis clinical isolates; assay: microbe, parasite or virus in culture; conditions: Mycobacterium tuberculosis, H37RV, read-out: MIC H37Rv
[12] = test system: MRSA, Staphylococcus aureus (NRS70); assay: MIC determination, microbroth dilution; conditions: Staphylococcus aureus (NRS70); read-out: MIC MRSA
[13] = test system: Escherichia coli (ATCC 700926); assay: MIC determination, microbroth dilution; conditions: ATCC700926; Escherichia coli (ATCC 700926); read-out: MIC E.c.
Method: MICs were determined using the microbroth dilution method according to Clinical Laboratory Standards Institute (CLSI; National, C. F. C. L. S., Methods for Dilution Antimicrobial Susceptibility Tests for Bacteria Grow aerobically-Seventh Edition: Approved Standard M7-A7, CLSI, Wayne, Pa., USA, 2008) and were read by visual inspection. Two fold serial dilutions of antibiotic in 100 μL of the appropriate broth media were first prepared in 96-well round bottom microtiter plates (Nalge Nunc International, Rochester, N.Y., USA). An equivalent volume (100 μL) of bacterial broth inocula containing approximately 10^5 bacterial cfu/mL was added to each well to give final concentrations of drug starting at 200 μg/mL and the plates were incubated aerobically at 37° C. M. tuberculosis microtiter plates were incubated for 7 days and all other strains were incubated overnight. After incubations, in all cases the MIC was recorded as the lowest concentration of drug that prevented bacterial growth.

[14] = test system: Streptococcus pneumoniae (R6); assay: MIC determination, microbroth dilution; conditions: Streptococcus pneumoniae (R6); read-out: MIC S. pn.
[15] = test system: Pseudomonas aeruginosa (PA01); assay: MIC determination, microbroth dilution
[16] = test system: Neisseria gonorrhoeae (ATCC 49226); assay: Disc diffusion assay; conditions: ATCC49226, 4 μg per disc, read-out: Zone of inhibition N.g.
[17] = test system: Bacillus anthracis, Sterne 34F2; assay: microbe, parasite or virus in culture; conditions: STERNE34F2, read-out: MIC B.a.
[18] = test system: Streptococcus pyogenes (ATCC 700294); assay: MIC determination, microbroth dilution; conditions: ATCC700294; Streptococcus pyogenes (ATCC 700294); read-out: MIC S. py.
[19] = test system: Enterococcus faecalis (ATCC 33186); assay: MIC determination, microbroth dilution; conditions: ATCC33186; Enterococcus faecalis (ATCC 33186); read-out: MIC E.f.

SMILES | MIC [1] [µg/mL] | MIC [2] [µg/mL] | MIC [3] [µg/mL] | zone of inhibition at 4 µg/disc [4] [mm] | MIC [5] [µg/mL] | MIC [6] [µg/mL] | MIC (E. coli K12 ΔtolC) [µg/mL] | MIC [7] [µg/mL] | zone of inhibition at 4 µg/disc [8] [mm] | zone of inhibition at 4 µg/disc [9] [mm] | MIC [10] [µg/mL] | MIC [11] [µg/mL] | MIC [12] [µg/mL] | MIC [13] [µg/mL] | MIC [14] [µg/mL] | MIC [15] [µg/mL] | zone of inhibition at 4 µg/disc [16] [mm] | MIC [17] [µg/mL] | MIC [18] [µg/mL] | MIC [19] [µg/mL]
CN[C@@H]1[C@H](O)[C@H](NC)[C@H]2O[C@]3(O)[C@H](O[C@@H]2[C@H]1O)O[C@H](C)C[C@@]3(O)CNc1ccc(OC)cc1 [compound 29, 3′-(R)-3′-[(4-methoxy)phenylaminomethyl)]dihydrospectinomycin Trihydrochloride] | > 200 | ≥ 200 | 200 | 7 | 200 | > 200 | 50 | > 200 | 0 | 7 | 200 | > 200 | > 200 | ≥ 200 | > 200 | > 200 | 12 | 100 to 200 | 25 | 
CN[C@@H]1[C@H](O)[C@H](NC)C2O[C@]3(O)C(OC2[C@H]1O)O[C@H](C)C[C@@]3(O)CNCc1ccc(-c2ccccc2)cc1 (some centres unmarked) [compound 40] |  |  | 100 (≈ 189 µM) |  | 50 (≈ 94.4 µM) |  |  |  |  |  |  | 100 (≈ 189 µM) | 100 (≈ 189 µM) |  | 12.5 (≈ 23.6 µM) |  |  | > 200 | 6.25 (≈ 11.8 µM) | 25 (≈ 47.2 µM)
CN[C@@H]1[C@H](O)[C@H](NC)C2O[C@]3(O)C(OC2[C@H]1O)O[C@H](C)C[C@@]3(O)CNCCCc1ccco1 (some centres unmarked) [compound 38] |  |  | 50 (≈ 106 µM) |  | 6.25 (≈ 13.3 µM) |  |  |  |  |  |  | 6.3 (≈ 13.4 µM) | 100 (≈ 212 µM) |  | 12.5 (≈ 26.5 µM) |  |  | > 200 | 25 (≈ 53 µM) | 50 (≈ 106 µM)
CN[C@@H]1[C@H](O)[C@H](NC)C2O[C@]3(O)C(OC2[C@H]1O)O[C@H](C)C[C@@]3(O)CNCc1ccc2ccccc2c1 (some centres unmarked) [compound 39] |  |  | 100 (≈ 199 µM) |  | 25 (≈ 49.6 µM) |  |  |  |  |  |  | 50 (≈ 99.3 µM) | 100 (≈ 199 µM) |  | 12.5 (≈ 24.8 µM) |  |  | > 200 | 12.5 (≈ 24.8 µM) | 50 (≈ 99.3 µM)
CN[C@@H]1[C@H](O)[C@H](NC)C2O[C@]3(O)C(OC2[C@H]1O)O[C@H](C)C[C@@]3(O)CNCCC(C)c1ccccc1 (some centres unmarked) [compound 47] |  |  | 25 (≈ 50.4 µM) |  | 12.5 (≈ 25.2 µM) |  |  |  |  |  |  | 6.3 (≈ 12.7 µM) | 100 (≈ 202 µM) |  | 25 (≈ 50.4 µM) |  |  | > 200 | 25 (≈ 50.4 µM) | 25 (≈ 50.4 µM)
CN[C@@H]1[C@H](O)[C@H](NC)C2O[C@]3(O)C(OC2[C@H]1O)O[C@H](C)C[C@@]3(O)CNCc1ccc2ccn(C)c2c1 (some centres unmarked) [compound 43] |  |  | 50 (≈ 98.7 µM) |  | 12.5 (≈ 24.7 µM) |  |  |  |  |  |  | 100 (≈ 197 µM) | 12.5 (≈ 24.7 µM) |  | 200 (≈ 395 µM) |  |  | > 200 | 100 (≈ 197 µM) | 100 (≈ 197 µM)
